In patent publication US9012200B2, “Composition of bacterial strains, bioremediation mixture and use of this composition for the removal of contaminants from the soil and the method for purifying the soil contaminants” (priority 2012, dated 2015):
Where two headings read alike, the source gives them in different places.

Assays:
[1] = test system: Achromobacter sp. strain 4P; assay type: cell-based
[2] = test system: Stenotrophomonas sp. strain 6L; assay type: cell-based
[3] = test system: investigated strains of bacteria; assay type: cell-based
[4] = test system: Pseudomonas sp. strain 4G; assay type: cell-based
[5] = test system: model strain Escherichia coli; conditions: according to Spain, 2003; cited from earlier work
[6] = test system: Stenotrophomonas sp. strain 3N; assay type: cell-based
[7] = test system: Arthrobacter sp. strain 1N; assay type: cell-based
[8] = test system: Brevundimonas sp. strain 2N; assay type: cell-based
[9] = test system: Stenotrophomonas sp. strain 2L; assay type: cell-based
[10] = test system: Pseudomonas sp. strain 3G; assay type: cell-based; conditions: 24 h
[11] = test system: Stenotrophomonas sp. strain 5L; assay type: cell-based
[12] = test system: Brevundimonas sp. strain 5N; assay type: cell-based
[13] = test system: Brevundimonas sp. strain 6N; assay type: cell-based

Structure (SMILES)	MIC threshold values of heavy metals [1]	MIC threshold values of heavy metals [2]	Growth of the strains in the presence of the metal salt [3]	Susceptibility of the investigated strains to the heavy metal [3]	MIC threshold values of heavy metals ([4]; 24 h)	MIC [5]	MIC threshold values of heavy metals [6]	MIC threshold values of heavy metals [7]	MIC threshold values of heavy metals [8]	MIC threshold values of heavy metals [9]	MIC threshold values of heavy metals [10]	MIC threshold values of heavy metals [11]	MIC threshold values of heavy metals [12]	MIC threshold values of heavy metals [13]	MIC threshold values of heavy metals ([4]; 48 h)
O=S(=O)([O-])[O-].[Cd+2] [Cd(II), Cadmium sulphate]	0.1(0.2) mM/L	0.1 mM/L	None of the investigated strains was able to grow	susceptible	0.1 mM/L	0.5 mM/L	0.1 mM/L	0.1 mM/L	0.1 mM/L	0.1 mM/L	0.1 mM/L	0.1 mM/L	0.1(0.2) mM/L	0.1 mM/L	–
[K+].[K+].[O]=[Cr](=[O])([O-])[O][Cr](=[O])(=[O])[O-] [Cr(VI), Potassium dichromate]	–	–	–	resistant	–	0.2 mM/L	–	–	–	–	–	–	–	–	–
O=S(=O)([O-])[O-].[Cu+2] [Cu(II), Copper sulphate]	3 mM/L	3(4) mM/L	–	resistant	3 mM/L	1 mM/L	3(4) mM/L	3 mM/L	3(4) mM/L	3 mM/L	3 mM/L	3 mM/L	3(4) mM/L	3(4) mM/L	4 mM/L
